Values quoted from earlier work as cited in publication PMC9635817, “In vitro inhibition of acetylcholinesterase activity by yellow field pea (Pisum sativum) protein-derived peptides as revealed by kinetics and molecular docking” (Frontiers in Nutrition, 2022).

Tested on: AChE

COc1cc2c(cc1OC)[C@@H]1[C@H](O)[C@@H](OC)C=C3CCN(C2)[C@H]31 [galanthine]
AChE-inhibitory IC50: 1.96 µg/mL
